# Key:
# [1] = biological target: mKCC4 mutant C256A/C469N/C565A/C647M/C633S (Mus musculus, UniProt Q9WVL3, C257A/C469N/C565A/C633S/C647M)
# Procedure: (§1) Mercury is known to inhibit several transporters via interaction with transmembrane or juxtamembrane cysteines (Kuwahara et al. (1997) Biochemistry 36:13973–13978; Jacoby (1999) Am J Physiol 277:C684–692). Given the inhibition of the KCCs by millimolar NEM at room temperature, presumed due to alkylation of cysteine residues (Mercado et al. (2000) J Biol Chem 275:30326–3034), the differential response of the KCCs to 50 μM mercury (Hg—Cl2) was examined. […] Of note, a cysteine residue in TM11 of NKCC1 is involved in the response of Na^+—K^+-2Cl^− cotransport to mercury (Jacoby (1999) Am J Physiol 277:C684–692).
# [2] = biological target: mKCC4 mutant C256A/C469N/C565A/C647M (Mus musculus, UniProt Q9WVL3, C257A/C469N/C565A/C647M)
# Sequence of mKCC4 mutant C256A/C469N/C565A/C647M (Q9WVL3 whole entry C257A/C469N/C565A/C647M): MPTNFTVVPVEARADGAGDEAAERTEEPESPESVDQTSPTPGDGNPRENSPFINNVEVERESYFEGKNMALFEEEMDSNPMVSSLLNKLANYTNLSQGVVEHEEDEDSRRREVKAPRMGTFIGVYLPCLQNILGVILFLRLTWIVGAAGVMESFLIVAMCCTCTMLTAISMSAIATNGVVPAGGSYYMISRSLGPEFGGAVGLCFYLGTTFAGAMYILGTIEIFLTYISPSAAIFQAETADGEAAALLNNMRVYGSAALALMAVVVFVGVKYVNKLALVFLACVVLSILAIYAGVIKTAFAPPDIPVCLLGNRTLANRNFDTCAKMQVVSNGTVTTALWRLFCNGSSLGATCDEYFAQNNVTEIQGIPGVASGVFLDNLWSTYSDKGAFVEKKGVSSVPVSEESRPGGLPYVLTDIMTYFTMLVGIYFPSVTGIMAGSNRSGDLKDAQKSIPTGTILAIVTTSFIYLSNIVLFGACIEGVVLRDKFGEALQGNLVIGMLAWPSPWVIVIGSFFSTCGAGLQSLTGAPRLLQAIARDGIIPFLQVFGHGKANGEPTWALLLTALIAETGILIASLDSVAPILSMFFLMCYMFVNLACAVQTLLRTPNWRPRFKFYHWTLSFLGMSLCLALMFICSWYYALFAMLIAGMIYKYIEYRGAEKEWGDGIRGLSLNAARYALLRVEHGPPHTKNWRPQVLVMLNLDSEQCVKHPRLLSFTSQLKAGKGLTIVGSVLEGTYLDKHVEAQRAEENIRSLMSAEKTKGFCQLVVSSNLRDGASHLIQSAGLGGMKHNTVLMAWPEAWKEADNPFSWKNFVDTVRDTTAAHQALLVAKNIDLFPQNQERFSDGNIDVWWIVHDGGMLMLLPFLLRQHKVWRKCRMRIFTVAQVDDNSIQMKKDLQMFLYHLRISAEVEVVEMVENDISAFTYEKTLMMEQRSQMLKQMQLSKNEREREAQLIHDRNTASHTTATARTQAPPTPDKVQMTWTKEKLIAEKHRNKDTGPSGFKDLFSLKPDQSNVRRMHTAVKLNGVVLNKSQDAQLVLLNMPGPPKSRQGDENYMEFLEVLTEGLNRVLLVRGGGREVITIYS
# Procedure: as §1
# Sequence of mKCC4 mutant C256A/C469N/C565A/C647M/C633S (Q9WVL3 whole entry C257A/C469N/C565A/C633S/C647M): as the sequence (Q9WVL3 whole entry C257A/C469N/C565A/C647M) above, with C633S counted along it
substance,measurement,setting,value
HgCl2 [Hg—Cl2],response of quintuple mutant mKCC4 to HgCl2,[1],resistant
same,response of quadruple mutant mKCC4 to HgCl2,[2],weakly sensitive

# From patent US7183075B2, “Purified and isolated potassium-chloride cotransporter nucleic acids and polypeptides and therapeutic and screening methods using same” (Vanderbilt University, priority 2000, dated 2007)
